Results: ChEMBL document CHEMBL4406826, “Discovery of δ-sultone-fused pyrazoles for treating Alzheimer's disease: Design, synthesis, biological evaluation and SAR studies” (Eur J Med Chem, 2019)
The source made the active and inactive calls.

Legend:
[1] = molecular target: Acetylcholinesterase (Electrophorus electricus) (UniProt O42275); assay: Inhibition of electric eel AChE at 20 uM using acetylthiocholine iodide as substrate preincubated with enzyme for 20 mins followed by substrate addition by Ellman's method relative to control
Chain of Acetylcholinesterase (Electrophorus electricus) (O42275 24-633 limits assumed): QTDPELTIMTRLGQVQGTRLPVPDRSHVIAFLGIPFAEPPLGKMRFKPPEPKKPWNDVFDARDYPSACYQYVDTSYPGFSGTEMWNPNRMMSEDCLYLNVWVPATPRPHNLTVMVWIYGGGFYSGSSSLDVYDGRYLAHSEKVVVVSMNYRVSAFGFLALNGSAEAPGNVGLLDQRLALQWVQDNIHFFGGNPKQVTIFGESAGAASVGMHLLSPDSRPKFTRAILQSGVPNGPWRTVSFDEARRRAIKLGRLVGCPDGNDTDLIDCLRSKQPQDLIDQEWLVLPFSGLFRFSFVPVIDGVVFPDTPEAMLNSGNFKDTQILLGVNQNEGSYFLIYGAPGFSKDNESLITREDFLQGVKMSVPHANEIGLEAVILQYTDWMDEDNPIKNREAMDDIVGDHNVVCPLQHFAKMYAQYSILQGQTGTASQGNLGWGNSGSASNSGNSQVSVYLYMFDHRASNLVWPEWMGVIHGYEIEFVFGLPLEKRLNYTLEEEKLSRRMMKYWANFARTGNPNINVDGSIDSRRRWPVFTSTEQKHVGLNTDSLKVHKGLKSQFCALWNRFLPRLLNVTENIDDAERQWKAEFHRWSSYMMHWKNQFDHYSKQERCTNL

[2] = molecular target: Cholinesterase (Equus caballus, UniProt P81908); assay: Inhibition of equine serum BuChE using butyrylthiocholine iodide as substrate preincubated with enzyme for 20 mins followed by substrate addition by Ellman's method
Chain of Cholinesterase (P81908 whole entry): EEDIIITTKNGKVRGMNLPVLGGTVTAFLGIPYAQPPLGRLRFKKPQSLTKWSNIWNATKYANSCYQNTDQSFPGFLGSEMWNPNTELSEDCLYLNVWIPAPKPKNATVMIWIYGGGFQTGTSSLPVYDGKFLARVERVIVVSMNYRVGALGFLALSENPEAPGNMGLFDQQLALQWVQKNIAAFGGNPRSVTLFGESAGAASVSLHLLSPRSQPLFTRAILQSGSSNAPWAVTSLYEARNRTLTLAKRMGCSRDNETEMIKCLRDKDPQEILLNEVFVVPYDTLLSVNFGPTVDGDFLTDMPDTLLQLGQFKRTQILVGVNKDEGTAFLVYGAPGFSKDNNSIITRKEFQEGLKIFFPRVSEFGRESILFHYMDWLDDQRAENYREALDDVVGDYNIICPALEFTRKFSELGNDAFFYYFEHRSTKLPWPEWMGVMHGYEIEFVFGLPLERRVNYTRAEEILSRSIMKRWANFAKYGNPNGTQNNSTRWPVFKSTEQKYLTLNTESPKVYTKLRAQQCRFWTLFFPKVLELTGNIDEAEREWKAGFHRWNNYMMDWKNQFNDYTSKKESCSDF

[3] = Octanol-PBS buffer partition coefficient, log P of the compound incubated for 24 hrs measured at pH 7.4 by shake-flask method; format: physicochemical
[4] = molecular target: Cholinesterase (Equus caballus) (UniProt P81908); assay: Inhibition of equine serum BuChE at 20 uM using butyrylthiocholine iodide as substrate preincubated with enzyme for 20 mins followed by substrate addition by Ellman's method relative to control
Chain of Cholinesterase (Equus caballus) (P81908 whole entry): as above

Cc1nn(-c2ccccc2F)c2c1CCS(=O)(=O)O2
inhibition [1]: inactive | IC50 [2]: 1.8 µM | logD at 24 h [3]: 1.86

Cc1nn(-c2ccccc2)c2c1C(/C=C/c1ccc(C(C)(C)C)cc1)CS(=O)(=O)O2 (centres undefined)
inhibition [4]: inactive | inhibition [1]: 11%

O=S1(=O)CC(c2ccc(F)cc2)c2c(C3CC3)nn(-c3ccccc3Cl)c2O1 (centres undefined)
inhibition [1]: inactive | IC50 [2]: 6.02 µM | logD at 24 h [3]: 2.04

Cc1nn(-c2ccccc2)c2c1C(/C=C/c1ccc(C(F)(F)F)cc1)CS(=O)(=O)O2 (centres undefined)
inhibition [4]: inactive | inhibition [1]: 19%

N#Cc1ccc(C2CS(=O)(=O)Oc3c2c(C2CC2)nn3-c2ccccc2Cl)cc1 (centres undefined)
inhibition [4]: 7% | inhibition [1]: inactive

Cc1nn(-c2ccccc2)c2c1C(c1cccc3c1sc1ccccc13)CS(=O)(=O)O2 (centres undefined)
inhibition [4]: inactive | inhibition [1]: inactive

Cc1nn(-c2ccccc2)c2c1C(c1cccc(C3CS(=O)(=O)Oc4c3c(C)nn4-c3ccccc3)c1)CS(=O)(=O)O2 (centres undefined)
inhibition [4]: inactive | inhibition [1]: inactive

O=S1(=O)CC(c2cccc(C(F)(F)F)c2)c2c(C3CC3)nn(-c3ccccc3Cl)c2O1 (centres undefined)
inhibition [4]: inactive | inhibition [1]: inactive

Cc1nn(-c2ccccc2)c2c1C(c1ccc3ccccc3c1)CS(=O)(=O)O2 (centres undefined)
inhibition [4]: inactive | inhibition [1]: inactive

Cc1ccc(-n2nc(C)c3c2OS(=O)(=O)CC3c2ccccc2)cc1 (centres undefined)
inhibition [4]: inactive | inhibition [1]: inactive

O=S1(=O)CC(c2cccc(F)c2)c2c(C3CC3)nn(-c3ccccc3F)c2O1 (centres undefined)
inhibition [1]: inactive | IC50 [2]: 4.01 µM | logD at 24 h [3]: 2.86

COc1ccccc1C1CS(=O)(=O)Oc2c1c(C)nn2-c1ccccc1 (centres undefined)
inhibition [4]: 31% | inhibition [1]: inactive

O=C1CCC2=C1C(c1ccc([N+](=O)[O-])cc1)CS(=O)(=O)O2 (centres undefined)
inhibition [4]: inactive | inhibition [1]: inactive

Cc1nn(-c2cccc(Cl)c2)c2c1C(c1cccc(F)c1)CS(=O)(=O)O2 (centres undefined)
inhibition [4]: inactive | inhibition [1]: inactive

Cc1nn(-c2ccccc2)c2c1C(c1cccs1)CS(=O)(=O)O2 (centres undefined)
inhibition [4]: 42% | inhibition [1]: inactive

CC(C)C(=O)C1=C(C(C)C)OS(=O)(=O)CC1c1ccc([N+](=O)[O-])cc1 (centres undefined)
inhibition [4]: inactive | inhibition [1]: inactive

Cc1cc(C2CS(=O)(=O)Oc3c2c(C)nn3-c2ccc(Cl)cc2)ccc1Br (centres undefined)
inhibition [4]: 34% | inhibition [1]: inactive

COc1ccc(C2CS(=O)(=O)Oc3c2c(C)nn3-c2ccccc2)cc1 (centres undefined)
inhibition [1]: inactive | IC50 [2]: 9.35 µM

COc1ccc(-c2nn(-c3ccccc3Cl)c3c2C(c2ccc(F)cc2)CS(=O)(=O)O3)cc1 (centres undefined)
inhibition [4]: inactive | inhibition [1]: inactive

Cc1nn(-c2ccc(F)cc2)c2c1C(c1ccccc1)CS(=O)(=O)O2 (centres undefined)
inhibition [4]: inactive | inhibition [1]: inactive

Cc1nn(-c2ccc(Br)cc2)c2c1C(c1ccccc1)CS(=O)(=O)O2 (centres undefined)
inhibition [4]: inactive | inhibition [1]: inactive

COc1cccc(C2CS(=O)(=O)Oc3c2c(C2CC2)nn3-c2cccc(F)c2)c1 (centres undefined)
inhibition [1]: inactive | IC50 [2]: 14.3 µM

N#Cc1ccc(C2CS(=O)(=O)Oc3c2c(C2CC2)nn3-c2cccc(Cl)c2)cc1 (centres undefined)
inhibition [4]: inactive | inhibition [1]: inactive

Cc1nn(-c2ccccc2)c2c1C(/C=C/c1ccc(Br)cc1)CS(=O)(=O)O2 (centres undefined)
inhibition [4]: inactive | inhibition [1]: inactive

O=S1(=O)CC(c2ccc(F)cc2)c2c(C3CC3)nn(-c3ccccc3F)c2O1 (centres undefined)
inhibition [1]: inactive | IC50 [2]: 7.76 µM | logD at 24 h [3]: 1.76

CC(=O)c1cccc(C2CS(=O)(=O)Oc3c2c(C)nn3-c2ccccc2)c1 (centres undefined)
inhibition [4]: 24% | inhibition [1]: inactive

Cc1nn(-c2ccccc2)c2c1C(c1ccc(-c3ccccc3)cc1)CS(=O)(=O)O2 (centres undefined)
inhibition [4]: inactive | inhibition [1]: 12%

Cc1cc(C)cc(C2CS(=O)(=O)Oc3c2c(C)nn3-c2ccccc2)c1 (centres undefined)
inhibition [4]: inactive | inhibition [1]: inactive

CC(=O)C1=C(C)OS(=O)(=O)CC1c1ccc([N+](=O)[O-])cc1 (centres undefined)
inhibition [4]: inactive | inhibition [1]: inactive

Cc1nn(-c2cccc(F)c2)c2c1C(c1cccc(F)c1)CS(=O)(=O)O2 (centres undefined)
inhibition [4]: inactive | inhibition [1]: inactive

COc1ccc(-c2nn(-c3ccc(Cl)cc3)c3c2C(c2ccc(C#N)cc2)CS(=O)(=O)O3)cc1 (centres undefined)
inhibition [1]: inactive | IC50 [2]: 21 µM

Cc1cc(C2CS(=O)(=O)Oc3c2c(C2CC2)nn3-c2cccc(F)c2)ccc1Br (centres undefined)
inhibition [1]: inactive | IC50 [2]: 11.5 µM

Cc1nn(-c2ccccc2)c2c1C(c1cnn(-c3ccccc3)c1)CS(=O)(=O)O2 (centres undefined)
inhibition [4]: 14% | inhibition [1]: inactive

Cc1cc(C2CS(=O)(=O)Oc3c2c(C)nn3-c2ccccc2F)ccc1Br (centres undefined)
inhibition [1]: inactive | IC50 [2]: 3.83 µM | logD at 24 h [3]: 2.26

Cc1nn(-c2ccccc2)c2c1C(c1ccsc1)CS(=O)(=O)O2 (centres undefined)
inhibition [1]: inactive | IC50 [2]: 10.1 µM

Cc1nn(-c2cccc(Cl)c2)c2c1C(c1ccc(F)cc1)CS(=O)(=O)O2 (centres undefined)
inhibition [4]: inactive | inhibition [1]: inactive

CCOC(=O)c1ccc(C2CS(=O)(=O)Oc3c2c(C)nn3-c2ccccc2)cc1 (centres undefined)
inhibition [4]: inactive | inhibition [1]: inactive

Cc1cc(C2CS(=O)(=O)Oc3c2c(C2CC2)nn3-c2ccccc2Cl)ccc1Br (centres undefined)
inhibition [1]: inactive | IC50 [2]: 3.77 µM | logD at 24 h [3]: 2.53

COc1ccc(-n2nc(C)c3c2OS(=O)(=O)CC3c2ccc(F)cc2)cc1 (centres undefined)
inhibition [4]: 15% | inhibition [1]: inactive

Cc1nn(-c2ccc(Cl)cc2)c2c1C(c1cccc(F)c1)CS(=O)(=O)O2 (centres undefined)
inhibition [4]: inactive | inhibition [1]: inactive

COc1cccc(C2CS(=O)(=O)Oc3c2c(C)nn3-c2cccc(Cl)c2)c1 (centres undefined)
inhibition [4]: inactive | inhibition [1]: inactive

COc1ccc(-n2nc(C)c3c2OS(=O)(=O)CC3c2ccc(Br)c(C)c2)cc1 (centres undefined)
inhibition [4]: inactive | inhibition [1]: inactive

CC1(C)CC(=O)C2=C(C1)OS(=O)(=O)CC2c1ccc([N+](=O)[O-])cc1 (centres undefined)
inhibition [4]: inactive | inhibition [1]: inactive

COc1ccc(-c2nn(-c3ccc(Cl)cc3)c3c2C(c2cccc(OC)c2)CS(=O)(=O)O3)cc1 (centres undefined)
inhibition [4]: 42% | inhibition [1]: inactive

Cc1nn(-c2ccccc2)c2c1C(c1cc3ccccc3o1)CS(=O)(=O)O2 (centres undefined)
inhibition [1]: inactive | IC50 [2]: 2.6 µM

Cc1cc(C2CS(=O)(=O)Oc3c2c(C2CC2)nn3-c2cccc(Cl)c2)ccc1Br (centres undefined)
inhibition [4]: 34% | inhibition [1]: inactive

Cc1nn(-c2ccccc2)c2c1C(c1ccc(F)cc1)CS(=O)(=O)O2 (centres undefined)
inhibition [4]: 37% | inhibition [1]: inactive

Cc1cccc(-n2nc(C)c3c2OS(=O)(=O)CC3c2ccccc2)c1 (centres undefined)
inhibition [4]: inactive | inhibition [1]: inactive

Cc1ccc(C2CS(=O)(=O)Oc3c2c(C)nn3-c2ccccc2)cc1Br (centres undefined)
inhibition [1]: inactive | IC50 [2]: 18.3 µM

Cc1nn(-c2ccc(Cl)cc2)c2c1C(c1ccc(F)cc1)CS(=O)(=O)O2 (centres undefined)
inhibition [4]: inactive | inhibition [1]: inactive

Cc1nn(-c2cccc(F)c2)c2c1C(c1ccc(F)cc1)CS(=O)(=O)O2 (centres undefined)
inhibition [4]: inactive | inhibition [1]: inactive

COc1ccc(-c2nn(-c3ccccc3F)c3c2C(c2ccc(F)cc2)CS(=O)(=O)O3)cc1 (centres undefined)
inhibition [4]: inactive | inhibition [1]: inactive

Cc1nn(-c2ccccc2)c2c1C(c1cccc(C(F)(F)F)c1)CS(=O)(=O)O2 (centres undefined)
inhibition [1]: inactive | IC50 [2]: 16.4 µM

Cc1nn(-c2ccccc2)c2c1C(c1cccc(F)c1)CS(=O)(=O)O2 (centres undefined)
inhibition [1]: inactive | IC50 [2]: 9.82 µM

Cc1nn(-c2ccccc2)c2c1C(c1ccc([N+](=O)[O-])cc1)CS(=O)(=O)O2 (centres undefined)
inhibition [4]: inactive | inhibition [1]: inactive

Cc1nn(-c2ccccc2)c2c1C(c1ccc(C#N)cc1)CS(=O)(=O)O2 (centres undefined)
inhibition [4]: 15% | inhibition [1]: inactive

COc1ccc(-c2nn(-c3ccc(Cl)cc3)c3c2C(c2ccc(Br)c(C)c2)CS(=O)(=O)O3)cc1 (centres undefined)
inhibition [1]: inactive | IC50 [2]: 13.3 µM

Cc1nn(-c2ccccc2)c2c1CCS(=O)(=O)O2
inhibition [4]: inactive | inhibition [1]: inactive

Cc1cc(C2CS(=O)(=O)Oc3c2c(C)nn3-c2cccc(Cl)c2)ccc1Br (centres undefined)
inhibition [4]: inactive | inhibition [1]: inactive

Cc1cccc(C2CS(=O)(=O)Oc3c2c(C)nn3-c2ccccc2)c1 (centres undefined)
inhibition [1]: inactive | IC50 [2]: 17.7 µM

Cc1ccc(C2CS(=O)(=O)Oc3c2c(C)nn3-c2ccccc2)cc1 (centres undefined)
inhibition [4]: inactive | inhibition [1]: inactive

Cc1cccc(/C=C/C2CS(=O)(=O)Oc3c2c(C)nn3-c2ccccc2)c1 (centres undefined)
inhibition [1]: 13% | IC50 [2]: 10.1 µM

COc1ccc(-c2nn(-c3ccccc3Cl)c3c2C(c2ccc(Br)c(C)c2)CS(=O)(=O)O3)cc1 (centres undefined)
inhibition [4]: 35% | inhibition [1]: inactive

COc1cccc(C2CS(=O)(=O)Oc3c2c(C)nn3-c2ccccc2)c1 (centres undefined)
inhibition [1]: inactive | IC50 [2]: 11 µM

COc1ccc(-c2nn(-c3ccc(Cl)cc3)c3c2C(c2ccc(F)cc2)CS(=O)(=O)O3)cc1 (centres undefined)
inhibition [4]: 7% | inhibition [1]: inactive

Cc1ccc(-n2nc(C)c3c2OS(=O)(=O)CC3c2ccccc2)cc1C (centres undefined)
inhibition [4]: inactive | inhibition [1]: inactive

Cc1nn(-c2ccccc2)c2c1C(c1cccc([N+](=O)[O-])c1)CS(=O)(=O)O2 (centres undefined)
inhibition [4]: 23% | inhibition [1]: inactive

Cc1nn(-c2ccccc2)c2c1C(c1cc3ccccc3s1)CS(=O)(=O)O2 (centres undefined)
inhibition [4]: 33% | inhibition [1]: 14%

O=C1CCCC2=C1C(c1ccc([N+](=O)[O-])cc1)CS(=O)(=O)O2 (centres undefined)
inhibition [4]: 25% | inhibition [1]: inactive
